Experimental data published in ChEMBL document CHEMBL1201862, “PubChem BioAssay data set” (2004).
Where “and” joins values, the source holds several entries; their conditions need not be identical. Identical values can stand only once.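 Five compound concentrations were applied to cells in 96-well plates for 48 hours; endpoints were derived by simple linear interpolation of the resulting dose-response curve. Here, GI50 denotes the concentration required for 50% inhibition of growth.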 Calls of active or inactive are those of the source. Rule as the data show it: active = GI50 up to about 1.1 µM and inactive = higher.

Assays:
Experiment in all cases: DTP human tumour cell line panel, 48 h
CAKI-1 = system: CAKI-1
MCF7 = system: MCF7
CCRF-CEM = system: CCRF-CEM
PC-3 = system: PC-3
SF-268 = system: SF-268
SR = system: SR
MDA-MB-231 = system: MDA-MB-231
SF-295 = system: SF-295
OVCAR-4 = system: OVCAR-4
COLO 205 = system: COLO 205
MDA-N = system: MDA-N
RPMI-8226 = system: RPMI-8226
HT-29 = system: HT-29
MOLT-4 = system: MOLT-4
K562 = system: K562
UO-31 = system: UO-31
ACHN = system: ACHN
SNB-19 = system: SNB-19
U-251 = system: U-251
OVCAR-5 = system: OVCAR-5

Measured: GI50

Cn1c(=O)c2nc(Nc3ccccc3)[nH]c2n(C)c1=O
inactive: CAKI-1 > 10 µM | MCF7 > 10 µM | CCRF-CEM > 10 µM | PC-3 > 10 µM | SF-268 > 10 µM | SR > 10 µM | MDA-MB-231 > 10 µM | SF-295 > 10 µM | OVCAR-4 > 10 µM | COLO 205 > 10 µM | MDA-N > 10 µM | RPMI-8226 > 10 µM | HT-29 > 10 µM | MOLT-4 > 10 µM | K562 > 10 µM

Cc1nc(=O)[nH]c2s/c(=N/C3CCCCC3)n(C3CCCCC3)c(=O)c12
inactive: CAKI-1 > 100 µM | MCF7 > 100 µM | CCRF-CEM > 100 µM | PC-3 > 100 µM | MDA-MB-231 > 100 µM | SF-295 > 100 µM | OVCAR-4 > 100 µM | COLO 205 > 100 µM | UO-31 > 100 µM | ACHN > 100 µM | MDA-N > 100 µM | SNB-19 > 100 µM | RPMI-8226 > 100 µM | HT-29 > 100 µM | MOLT-4 > 100 µM | U-251 > 100 µM | OVCAR-5 > 100 µM | K562 > 100 µM

CCCCC1=C(C(=O)N2CCOCC2)C2(OCCO2)C1Cl (centres undefined)
inactive: CAKI-1 29.2 µM | MCF7 20 µM | CCRF-CEM > 100 µM | PC-3 35.6 µM | SF-268 40.8 µM | MDA-MB-231 64 µM | SF-295 28.1 µM | OVCAR-4 28.8 µM | COLO 205 23.1 µM | UO-31 56.6 µM | ACHN 20 µM | MDA-N 14.8 µM | SNB-19 32.3 µM | HT-29 24.4 µM | MOLT-4 > 100 µM | U-251 35.8 µM | OVCAR-5 19.4 µM

C=C(C(=O)O)[C@@H]1C[C@@H]2O[C@H]1[C@@H](O)[C@@H](C)CCCC(C)=CCC[C@@]2(C)O
inactive: MCF7 46 µM and > 91.6 µM | CCRF-CEM 33.3 µM and > 46.8 µM | PC-3 > 100 µM | SF-268 > 100 µM | SR 49.1 µM | MDA-MB-231 > 100 µM | SF-295 > 100 µM | OVCAR-4 > 100 µM | COLO 205 > 100 µM and 72.6 µM | UO-31 > 100 µM and 69 µM | ACHN 90.6 µM | MDA-N 59.4 µM and 71.1 µM | SNB-19 > 100 µM | U-251 > 100 µM and 97.3 µM | OVCAR-5 > 100 µM

O=C(CC(C(=O)c1cccs1)c1ccsc1)c1ccsc1 (centres undefined)
inactive: MCF7 32.5 µM | CCRF-CEM 29 µM | PC-3 29 µM | SF-268 51.6 µM | SR 32.6 µM | MDA-MB-231 30 µM | SF-295 24.6 µM | OVCAR-4 27.4 µM | COLO 205 18.2 µM | UO-31 31.4 µM | ACHN 58.2 µM | MDA-N > 10 µM | SNB-19 50.6 µM | RPMI-8226 27.1 µM | HT-29 36.6 µM | MOLT-4 21 µM | U-251 46.3 µM | OVCAR-5 > 100 µM | K562 27.4 µM

CCOC(=O)c1c(N2CCOCC2)ncn(-c2cccc(Cl)c2)c1=O
inactive: CAKI-1 > 100 µM | MCF7 > 100 µM | CCRF-CEM > 100 µM | PC-3 > 100 µM | SF-268 > 100 µM | MDA-MB-231 > 100 µM | SF-295 > 100 µM | OVCAR-4 > 100 µM | COLO 205 > 100 µM | ACHN > 100 µM | MDA-N > 100 µM | SNB-19 > 100 µM | RPMI-8226 > 100 µM | HT-29 > 100 µM | MOLT-4 > 100 µM | U-251 > 100 µM | OVCAR-5 > 100 µM | K562 > 100 µM

CC[C@@H]1C[C@@H](O)[C@@H]2[C@H](O)[C@H](O)CN2C1
inactive: CAKI-1 > 100 µM | MCF7 > 100 µM | CCRF-CEM > 100 µM | PC-3 > 100 µM | SF-268 > 100 µM | MDA-MB-231 > 100 µM | SF-295 > 100 µM | OVCAR-4 > 100 µM | COLO 205 > 100 µM | UO-31 > 100 µM | ACHN > 100 µM | MDA-N > 100 µM | SNB-19 > 100 µM | RPMI-8226 > 100 µM | HT-29 > 100 µM | MOLT-4 > 100 µM | U-251 > 100 µM | OVCAR-5 > 100 µM | K562 > 100 µM

CC1(C)C2CCC1(C)C(N/C(=C(/C(Cl)=C(Cl)Cl)[N+](=O)[O-])n1nnc3ccccc31)C2 (centres undefined)
inactive: CAKI-1 18.6 µM | MCF7 32.4 µM | CCRF-CEM 21 µM | PC-3 21.1 µM | SF-268 17.6 µM | MDA-MB-231 22.5 µM | SF-295 24.3 µM | OVCAR-4 24.1 µM | COLO 205 18.5 µM | UO-31 21 µM | ACHN 20.9 µM | MDA-N 36.4 µM | SNB-19 25.1 µM | RPMI-8226 25.7 µM | HT-29 39 µM | U-251 19.2 µM | OVCAR-5 29.2 µM

N=C(N)C1CN(CC=O)C(=O)NC1=O (centres undefined)
inactive: MCF7 > 100 µM | CCRF-CEM > 100 µM | PC-3 > 100 µM | SF-268 > 100 µM | SR > 100 µM | MDA-MB-231 > 100 µM | SF-295 > 100 µM | OVCAR-4 > 100 µM | COLO 205 > 100 µM | UO-31 > 100 µM | ACHN > 100 µM | MDA-N > 100 µM | SNB-19 > 100 µM | RPMI-8226 > 100 µM | HT-29 > 100 µM | MOLT-4 > 100 µM | U-251 > 100 µM | OVCAR-5 > 100 µM | K562 > 100 µM

CN(C)c1ccc(C2CC(c3ccc4ccccc4c3O)=NN2c2ccc([N+](=O)[O-])cc2[N+](=O)[O-])cc1 (centres undefined)
inactive: CAKI-1 > 100 µM | MCF7 23.8 µM | CCRF-CEM 22.3 µM | PC-3 23.6 µM | SF-268 98.4 µM | SR 12.6 µM | MDA-MB-231 22 µM | SF-295 40.1 µM | OVCAR-4 > 100 µM | COLO 205 38.7 µM | UO-31 27.4 µM | ACHN > 100 µM | MDA-N 16.3 µM | HT-29 39.4 µM | MOLT-4 22.8 µM | U-251 41.9 µM | OVCAR-5 > 100 µM

Cc1cn(S(=O)(=O)c2ccccc2)c2c(OCc3ccccc3)cc(NS(C)(=O)=O)cc12
inactive: CAKI-1 72.3 µM | MCF7 6.98 µM | PC-3 3.92 µM | SF-268 14 µM | SR 4.98 µM | MDA-MB-231 9.66 µM | SF-295 14.7 µM | OVCAR-4 6.35 µM | COLO 205 10.3 µM | UO-31 17.7 µM | ACHN 20.4 µM | MDA-N 10.7 µM | SNB-19 43.3 µM | RPMI-8226 13.2 µM | HT-29 4.42 µM | MOLT-4 3.45 µM | U-251 10.6 µM | OVCAR-5 61.8 µM | K562 20.1 µM

O=C(Nc1ccc(Cl)cc1Cl)c1cc2nc3ccccc3c(=O)n2c2ccccc12
inactive: CAKI-1 > 10 µM | MCF7 > 10 µM | CCRF-CEM > 10 µM | PC-3 > 10 µM | SF-268 > 10 µM | MDA-MB-231 > 10 µM | SF-295 > 10 µM | UO-31 > 10 µM | MDA-N > 10 µM | SNB-19 > 10 µM | HT-29 > 10 µM | U-251 > 10 µM | OVCAR-5 > 10 µM | K562 > 10 µM

C=CCc1ccccc1CC1(OCC)OC(=O)c2ccccc21 (centres undefined)
inactive: CAKI-1 > 100 µM | MCF7 > 100 µM | PC-3 83 µM | SF-268 > 100 µM | MDA-MB-231 72.8 µM | SF-295 > 100 µM | OVCAR-4 > 100 µM | COLO 205 67.1 µM | UO-31 > 100 µM | ACHN > 100 µM | MDA-N 31.3 µM | SNB-19 > 100 µM | RPMI-8226 17 µM | HT-29 45.2 µM | MOLT-4 48.8 µM | U-251 > 100 µM | OVCAR-5 > 100 µM | K562 51.8 µM

CN1Cc2ccccc2/C=C\c2ccccc21
inactive: CAKI-1 40.9 µM | MCF7 24.7 µM | CCRF-CEM 47.3 µM | PC-3 64 µM | SF-268 39.4 µM | MDA-MB-231 96.2 µM | SF-295 62.7 µM | OVCAR-4 38.5 µM | COLO 205 44.5 µM | UO-31 80.2 µM | ACHN > 100 µM | MDA-N 42.2 µM | SNB-19 > 100 µM | RPMI-8226 25.4 µM | HT-29 28.1 µM | U-251 > 100 µM

O=C1Nc2nnc(S)n2NC12c1ccccc1-c1ccccc12
inactive: CAKI-1 57.3 µM | MCF7 33.2 µM | PC-3 > 100 µM | SF-268 65.2 µM | SR 33 µM | MDA-MB-231 > 100 µM | SF-295 > 100 µM | OVCAR-4 19.1 µM | COLO 205 > 100 µM | UO-31 > 100 µM | ACHN > 100 µM | MDA-N 34.5 µM | SNB-19 > 100 µM | HT-29 > 100 µM | U-251 > 100 µM | OVCAR-5 > 100 µM

O=C1c2ccccc2-c2oc(=O)c3ccccc3c21
inactive: CAKI-1 > 100 µM | MCF7 > 100 µM | CCRF-CEM > 100 µM | PC-3 > 100 µM | MDA-MB-231 > 100 µM | SF-295 > 100 µM | OVCAR-4 > 100 µM | COLO 205 > 100 µM | UO-31 > 100 µM | ACHN > 100 µM | MDA-N > 100 µM | SNB-19 > 100 µM | RPMI-8226 41.3 µM | HT-29 > 100 µM | MOLT-4 > 100 µM | U-251 > 100 µM | OVCAR-5 > 100 µM
